Measurements taken from PubChem BioAssay (NCI).
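In this assay, cells in 96-well plates receive the compound at five concentrations for 48 hours. Endpoints are linearly interpolated between the surrounding concentrations. GI50 is the concentration that inhibits growth by half. The concentration for full growth arrest is given as TGI.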

Assays:
Assay in all cases: NCI tumour cell line growth inhibition, 48 h
[1] = tested on: HOP-18 NSCLC
[2] = tested on: SNB-78 CNS
[3] = tested on: EKVX NSCLC
[4] = tested on: SN12C renal
[5] = tested on: DMS 114 small cell lung
[6] = tested on: MDA-MB-231 breast
[7] = tested on: MDA-MB-435
[8] = tested on: T-47D breast
[9] = tested on: MDA-N
[10] = tested on: BT-549 breast
[11] = tested on: SN12K1 renal
[12] = tested on: XF 498 CNS
[13] = tested on: P388 leukemia

| SMILES | TGI [1] [µM] | TGI [2] [µM] | TGI [3] [µM] | TGI [4] [µM] | TGI [5] [µM] | TGI [6] [µM] | TGI [7] [µM] | TGI [8] [µM] | TGI [9] [µM] | GI50 [3] [µM] | GI50 [6] [µM] | GI50 [7] [µM] | GI50 [8] [µM] | GI50 [10] [µM] | TGI [10] [µM] | TGI [11] [µM] | TGI [12] [µM] | TGI [13] [µM] | GI50 [4] [µM] |
| --- | --- | --- | --- | --- | --- | --- | --- | --- | --- | --- | --- | --- | --- | --- | --- | --- | --- | --- | --- |
| COc1ccc(C(=O)Cc2cc(OC)ccc2OC)cc1 | > 100 | > 100 | > 100 | > 100 | > 100 |  |  |  |  |  |  |  |  |  |  |  |  |  |  |
| CC(C)=CCN(N=O)c1ncnc2nc[nH]c12 |  |  | > 100 | > 100 |  | > 100 | > 100 | > 100 | > 100 |  |  |  |  |  |  |  |  |  |  |
| COc1ccccc1C1C(C#N)=C(N)OC2=C1C(=O)CCC2 (stereo unspecified) |  |  | > 100 |  |  | > 100 | > 100 | > 100 |  | > 100 | 16.2 | > 100 | > 100 | > 100 | > 100 |  |  |  |  |
| CCCCc1ccc2[n+](c1)C(C(=O)OCC)=PC2 (stereo unspecified) |  |  | > 100 | > 100 |  |  | > 100 |  | > 100 |  |  |  |  |  | > 100 |  |  |  |  |
| O=C1c2ccccc2-c2ccc(NC(=O)C3CCCCC3C(=O)O)cc21 (stereo unspecified) |  |  | > 100 | > 100 |  | > 100 | > 100 | > 100 | > 100 |  |  |  |  |  | > 100 |  |  |  |  |
| O=CNc1cccc2c3c([nH]c12)CCCCCC3 | > 100 | > 100 | > 100 | > 100 | > 100 |  |  |  |  |  |  |  |  |  |  | > 100 | > 100 | > 100 |  |
| C=C1C(=O)O[C@H]2C1[C@H](OC(=O)/C(C)=C\COC(C)=O)C[C@]1(CO1)[C@@H]1[C@H](O)[C@H]3O[C@@]3(C)[C@@H]12 (stereo partly specified) | 41.4 | > 73.5 | 57.3 | > 57.1 | 42.6 |  |  |  |  |  |  |  |  |  |  | > 55.9 | 38.4 | 18.4 |  |
| COC(=O)C(C)N1C(=O)c2ccccc2I1OC(C)=O (stereo unspecified) |  |  | > 100 | > 100 |  | > 100 | > 100 | 82.6 |  | > 100 | 25.4 | > 100 | 21 |  |  |  |  |  | 31.4 |
| CCOC(=O)C1C(c2cc(OC)c(O)c(OC)c2)c2cc3c(cc2OC1(C)O)OCO3 (stereo unspecified) | > 100 | > 100 | > 100 | > 100 |  |  |  |  |  |  |  |  |  |  |  |  | > 100 |  |  |
| COc1cc(N=Nc2cccc(S(=O)(=O)O)c2)c(C)cc1N=Nc1ccc(/C=C/c2ccc(N=[N+]([O-])c3ccc(/C=C/c4ccc(N=Nc5cc(C)c(N=Nc6cccc(S(=O)(=O)O)c6)cc5OC)cc4)c(S(=O)(=O)O)c3)cc2S(=O)(=O)O)cc1 | > 100 |  | > 100 | > 100 | > 100 |  |  |  |  |  |  |  |  |  |  | > 100 | > 100 | > 100 |  |
| Cc1cc(NS(=O)(=O)c2ccc(Nc3c4ccccc4nc4c(C(=O)NCCN(C)C)ccc(Cl)c34)cc2)no1 |  | 44 | 21.2 | 16.8 | 13.9 |  |  |  |  |  |  |  |  |  |  |  | 26.7 |  |  |
